Literature values as cited in patent US6183777A (priority 1997, dated 2001).

Key:
[1] = test system: Alzheimer's Disease patients; conditions: mild to medium AD
[2] = in vivo
cerebral acetyl choline = conditions: in particular in the cerebral cortex

Cl.Nc1c2c(nc3ccccc13)CCCC2 [Tacrine, 1,2,3,4-tetrahydro-9-acridinamine hydrochloride]
memory and recognition of patients [1]: can significantly improve the memory and recognition of patients | adverse effects [2]: gastro-intestinal side effects, such as nausea, vomiting, diarrhea, dyspepsia and loss of appetite; kinetic ataxia of voluntary muscles and myalgia; sweating and bradycardia induced by overexcitement of vagus nerues | hepatoxicity [2]: may cause reversible hepatoxicity | oral bioavailability, variation between individuals: may significantly vary in different individuals | cerebral acetyl choline concentration (cerebral acetyl choline): may increase cerebral acetyl choline concentration
